Here are results for 5 compounds from PMC10318456, “Selective inhibitors of the PSEN1–gamma-secretase complex” (The Journal of Biological Chemistry, 2023).

One may read the IC50 as the concentration that inhibits the measured activity by half.

For series [1], the target named is T1, PSEN1-APH1B γ-secretase complex (Homo sapiens, UniProt P49768).
T1 construct: expressed in transfected cells; host or cells: Psen1/2 double KO/Aph1ABC triple KO MEFs, pMSCV retroviral PSEN-IRES-APH1
Description: Aβ40 secretion by MEF cell line expressing only PSEN1-APH1B γ-secretase (APP-C99-GFP reporter). Type of series: cell-based. From the text: (§1) Mouse embryonic fibroblast (MEF) cells deficient for the Psen and Aph1 genes (Psen1/2^−/−, Aph1ABC^−/−) were reconstituted with human PSEN1 or PSEN2 and with human APH1A or APH1B to generate four independent cell lines, each constitutively expressing exclusively one type of γ-secretase complex (Fig. S1A) ([19]). A human APP-C99-GFP reporter was introduced to enable the measurement of Aβ peptides in the conditioned media of the cells to monitor γ-secretase activity. The assay was established in a 96-well format.
(§2) Conditional Psen1/2 double KO mice were crossed with conditional Aph1ABC triple KO mice ([29], [52], [58], [59]). At embryonic day 7.5, embryos were dissected and dissociated, and cells were plated in the presence of Dulbecco’s modified Eagle’s medium (DMEM)/F12 50% fetal calf serum (FCS) (Invitrogen). Primary MEFs were immortalized by transduction with LargeT antigen. Psen1/2 double KO/Aph1ABC triple KO MEFs were generated by transduction with a Cre-GFP–expressing adenoviral vector, and GFP-positive MEFs were sorted by fluorescence-activated cell sorting analysis. Psen1/2 Aph1ABC-deficient MEFs were maintained in DMEM/f12 10% FCS. To rescue γ-secretase expression, Psen1/2 double KO/Aph1ABC triple KO MEFs were transduced using Murine Stem Cell Virus retroviral vector system (pMSCV) viral vectors (Clontech) containing the human coding sequences of the different PSEN and APH1 homologs and the zeocin selection marker. An Internal Ribosome Entry Site sequence was cloned between the coding sequences for PSEN and APH1 to ensure co-expression of both proteins. Stable transfected cell lines were selected using 500-μg/ml zeocin (Invitrogen). Four different combinations were made: PSEN1 and APH1AL, PSEN1 and APH1B, PSEN2 and APH1AL, and PSEN2 and APH1B. These cell lines were transduced with pMSCV viral vectors (Clontech) expressing APP-C99-GFP-puromycin. After puromycin selection (5 μg/ml), GFP-positive cells were selected through FACS sorting. For the alanine mutagenesis experiment, pMSCV PSEN1-APH1A viral vectors were generated by using a long PCR-based QuikChange strategy (Stratagene). Stable cell lines without clonal selection were generated for each mutant as described above. All cell lines were regularly tested for the absence of mycoplasma and used for maximum 20 passages in culture.
(§3) The number of plated cells and incubation times were determined in respect to linearity of Aβ peptide secretion, the dynamic range of Aβ peptide quantification in the medium, and sensitivity to dimethylsulfoxide (DMSO). […] MEF cells were plated in DMEM F12 supplemented with 10% FCS at 10,000 cells per well in 96-well clear bottom plates in the late afternoon and cultured for 16 h at 37 °C, 5% CO2. In the morning of the second day, the medium was replaced with 60 μl of DMEM/F12 supplemented with 2% FCS, and GSI or DMSO (controls) were added. Compounds were tested in serial dilutions with concentrations ranging from […] to 0.1 nM with 3-fold changes. The final concentration of DMSO in all wells was 0.2%. Plates were put in the incubator again at 37 °C, 5% CO2. After 8 h, the culture media were collected, and 30 μl was used to measure Aβ40 peptides. The cell viability was assessed using the CellTiter-Glo Luminescent assay (Promega) that measures ATP production. All screens were performed at one site, and reported IC50 values throughout the manuscript are from this site (Beerse) unless otherwise indicated.
Standard 96-well SECTOR plates (MSD) were coated with 1.5 μg/ml anti-Aβ JRFcAβ40/28 capture antibody in a final volume of 50 μl of PBS 0.05% Tween 20.

The test system of series [2] is PSEN1 versus PSEN2 γ-secretase complexes. Nature of the series: Comparison of the four MEF cell lines: selectivity between γ-secretase complexes (IC50 ratios). Type of series: cell-based, human.
From the text: as §1
GraphPad Prism 7 software was used to generate inhibition fitting curves (four-parameter logistic equation, nonlinear regression) and to determine IC50 and 95% CI values (Fig. S2). Selectivity values (IC50 ratios of PSEN1 versus PSEN2) above 10 are highlighted in red.
as §3
GraphPad Prism 7 software (https://www.graphpad.com) was used to generate inhibition fitting curves (four-parameter logistic equation, nonlinear regression) and to determine IC50 values and 95% CI.

Series [3] has as its target T2, PSEN1-APH1A γ-secretase complex (Homo sapiens, UniProt P49768).
T2 construct: expressed in transfected cells; host or cells: Psen1/2 double KO/Aph1ABC triple KO MEFs, pMSCV retroviral PSEN-IRES-APH1
Nature of the series: Aβ40 secretion by MEF cell line expressing only PSEN1-APH1A γ-secretase (APP-C99-GFP reporter). Type of series: cell-based.
From the text: as §1, §2
(§4) The number of plated cells and incubation times were determined in respect to linearity of Aβ peptide secretion, the dynamic range of Aβ peptide quantification in the medium, and sensitivity to dimethylsulfoxide (DMSO). […] The cell viability was assessed using the CellTiter-Glo Luminescent assay (Promega) that measures ATP production. […]

The target of series [4] is T3, PSEN2-APH1A γ-secretase complex (Homo sapiens, UniProt P49810).
T3 construct: expressed in transfected cells; host or cells: Psen1/2 double KO/Aph1ABC triple KO MEFs, pMSCV retroviral PSEN-IRES-APH1
Nature of the series: Aβ40 secretion by MEF cell line expressing only PSEN2-APH1A γ-secretase (APP-C99-GFP reporter). Type of series: cell-based. Particulars: only the 95% CI is given.
From the text: as §1
as §2, with “Four different combinations were made: PSEN1 and APH1AL, PSEN1 and APH1B, PSEN2 and APH1AL, and PSEN2 and APH1B. These cell lines were transduced with pMSCV viral vectors (Clontech) expressing APP-C99-GFP-puromycin. After puromycin selection (5 μg/ml), GFP-positive cells were selected through FACS sorting. For the alanine mutagenesis experiment, pMSCV PSEN1-APH1A viral vectors were generated by using a long PCR-based QuikChange strategy (Stratagene). Stable cell lines without clonal selection were generated for each mutant as described above. All cell lines were regularly tested for the absence of mycoplasma and used for maximum 20 passages in culture.” left out
as §4

Series [5] addresses T4, PSEN2-APH1B γ-secretase complex (Homo sapiens, UniProt P49810).
T4 construct: expressed in transfected cells; host or cells: Psen1/2 double KO/Aph1ABC triple KO MEFs, pMSCV retroviral PSEN-IRES-APH1
Nature of the series: Aβ40 secretion by MEF cell line expressing only PSEN2-APH1B γ-secretase (APP-C99-GFP reporter). Type of series: cell-based. The note with it: only the 95% CI is given.
From the text: as §1
(§5) Conditional Psen1/2 double KO mice were crossed with conditional Aph1ABC triple KO mice ([29], [52], [58], [59]). At embryonic day 7.5, embryos were dissected and dissociated, and cells were plated in the presence of Dulbecco’s modified Eagle’s medium (DMEM)/F12 50% fetal calf serum (FCS) (Invitrogen). […] Psen1/2 double KO/Aph1ABC triple KO MEFs were generated by transduction with a Cre-GFP–expressing adenoviral vector, and GFP-positive MEFs were sorted by fluorescence-activated cell sorting analysis. […]
as §4

Series [6] concerns the target T5, PSEN2-APH1A γ-secretase complex (Homo sapiens, UniProt P49810+Q92542+Q96BI3+Q9NZ42).
T5 construct: expressed in transfected cells; host or cells: Psen1/2 double KO/Aph1ABC triple KO MEFs, pMSCV retroviral PSEN-IRES-APH1
Nature of the series: Aβ40 secretion by MEF cell line expressing only PSEN2-APH1A γ-secretase (APP-C99-GFP reporter). Type of series: cell-based. Particulars: 8 h, Beerse site unless otherwise indicated, read-out: IC50, Aβ40 peptides.
From the text: as §1
as §2, with “Four different combinations were made: PSEN1 and APH1AL, PSEN1 and APH1B, PSEN2 and APH1AL, and PSEN2 and APH1B. These cell lines were transduced with pMSCV viral vectors (Clontech) expressing APP-C99-GFP-puromycin. After puromycin selection (5 μg/ml), GFP-positive cells were selected through FACS sorting. For the alanine mutagenesis experiment, pMSCV PSEN1-APH1A viral vectors were generated by using a long PCR-based QuikChange strategy (Stratagene). Stable cell lines without clonal selection were generated for each mutant as described above. All cell lines were regularly tested for the absence of mycoplasma and used for maximum 20 passages in culture.” left out
as §4

Series [7] addresses T6, PSEN2-APH1B γ-secretase complex (Homo sapiens, UniProt P49810+Q8WW43+Q92542+Q9NZ42).
T6 construct: expressed in transfected cells; host or cells: Psen1/2 double KO/Aph1ABC triple KO MEFs, pMSCV retroviral PSEN-IRES-APH1
Description: Aβ40 secretion by MEF cell line expressing only PSEN2-APH1B γ-secretase (APP-C99-GFP reporter). Type of series: cell-based. The note with it: 8 h, Beerse site unless otherwise indicated, read-out: IC50, Aβ40 peptides.
From the text: as §1, §5, §4

The test system of series [8] is PSEN1–γ-secretase complex compared to PSEN2–γ-secretase complexes. The note with it: cell-free in vitro assays; cited from earlier work.
Series [9] deals with WT and PSEN2-deficient mice. The arrangement: method as in PMID 23197721. The note with it: cited from earlier work.
Series [10] deals with T cell acute lymphoblastic leukemia. More on the design: method as in PMID 31142678. Particulars: mice; cited from earlier work.
Another series relates to APP or Notch processing. Particulars: in vitro; cited from earlier work.
The mark [11] stands for this setting: 8 h, Beerse site unless otherwise indicated, read-out: IC50, Aβ40 peptides.
The mark [12] stands for this setting: only the 95% CI is given, read-out: 95% CI of IC50.

“And” between values parts separate entries of the source, which are not always exact repeats. Equal values may be shown once. Read-outs that look alike come from different tables or passages of the source.

`O=C1NCCCCC1N(Cc1ccc(Br)cc1)S(=O)(=O)c1ccc(Cl)cc1` (stereo not shown) [ELN-318463]: the IC50 in [1] (setting [11]) turned out to be 0.0245 µM. The “selectivity for PSEN1 complexes versus PSEN2 complexes” value in series [2] (IC50 ratios of PSEN1 versus PSEN2, MEF cell lines) was 70 fold.
As to `CC(C)C[C@H](NC(=O)[C@H](Cc1ccccc1)C[C@@H](O)[C@H](Cc1ccccc1)NC(=O)OC(C)(C)C)C(=O)N[C@@H](Cc1ccccc1)C(N)=O` [L-685,458], the IC50 in [3] (setting [12]) lay in the range of 1.21 to 2.37 µM; in [1] (setting [12]) it was 0.597 to 3.86 µM; in series [4], 0.992 to 2.6 µM; in [5], 2.22 to 5.74 µM.
For the compound `C[C@H](NC(=O)[C@@H](O)c1cc(F)cc(F)c1)C(=O)N[C@@H]1C(=O)N(C)c2ccccc2-c2ccccc21` [LY411575], the “selectivity toward the different γ-secretase complexes” value is reported as < 10 fold in series [2] (four MEF cell lines) and “without convincing selectivity” in [2] (four MEF cell lines, listed as LY-411575). In series [2] (four MEF cell lines, in words), the “potency toward all four γ-secretase activities” value is given as “low nanomolar potencies”.
Regarding `O=C(O)CC[C@H]1CC[C@@](c2cc(F)ccc2F)(S(=O)(=O)c2ccc(Cl)cc2)CC1` [MK-0752], the IC50 in series [3] (setting [11]) worked out at 0.0053 µM. Moreover, the IC50 in series [1] (setting [11]) was determined as 0.0016 µM. Besides, in series [2] (MEF cell lines), the “selectivity versus PSEN2–APH1A” value was determined as 14 fold and the “selectivity versus PSEN2–APH1B” value worked out at 70 fold.
As to `O=S(=O)(NC1CCC(c2cc(F)ccc2F)(S(=O)(=O)c2ccc(Cl)cc2)CC1)C(F)(F)F` (stereo not drawn) [MRK-560, N-[cis-4-[(4-chlorophenyl)sulfonyl]-4-(2,5-difluorophenyl)cyclohexyl]-1,1,1-trifluoromethanesulfonamide], the IC50 in [3] (setting [11]) is 0.0014 µM; in [1] (setting [11]), 0.00042 µM and 0.0004 µM; in series [6], > 0.13 µM; in series [7], > 0.13 µM. Moreover, the “selectivity PSEN1–APH1B versus PSEN1–APH1A” value in series [2] (MEF cell lines) came to 4 fold. Moreover, in [8], the “selectivity for PSEN1 complexes versus PSEN2 complexes” value is 5 fold. In addition, in series [8], the “selectivity toward the PSEN1–γ-secretase complex compared to PSEN2–γ-secretase complexes” value is given as 37 fold. In addition, the Aβ levels result in series [9] (WT and PSEN2-deficient mice) was “potently and dose dependently reduced Aβ levels”. In [9] (WT mice), the safety of treatment entry is on record as “safe”. Further, the Notch-related toxicity result in series [9] (mice genetically deficient for PSEN2) is on record as “caused major Notch-related toxicity”. In addition, in [10], the “protection in T cell acute lymphoblastic leukemia” value is listed as “protected the mice”. Besides, the “selectivity versus APP or Notch processing” value in the series on APP or Notch processing is “does not show selectivity”.
